Reference: paper PMC12090182, “Repurposing of the RIPK1-Selective Benzo[1,4]oxazepin-4-one Scaffold for the Development of a Type III LIMK1/2 Inhibitor” (ACS Chemical Biology, 2025)

Tests used:
Test in all cases: scanMAX KINOMEscan (Eurofins)
Format in all cases: binding
[1] = molecular target: STK16 (Homo sapiens, UniProt O75716); conditions: compound concentration 100 nM; Entrez STK16; read-out: Percent Control
Text: (§1) Supplement cb5c00097_si_002.xlsx, sheet "Table S6 (Eurofins Selectivity)" | column: Percent Control

[2] = molecular target: PHKG2 (Homo sapiens, UniProt P15735); conditions: 1000 nM, read-out: Percent Control
PHKG2, sequence (P15735 whole entry): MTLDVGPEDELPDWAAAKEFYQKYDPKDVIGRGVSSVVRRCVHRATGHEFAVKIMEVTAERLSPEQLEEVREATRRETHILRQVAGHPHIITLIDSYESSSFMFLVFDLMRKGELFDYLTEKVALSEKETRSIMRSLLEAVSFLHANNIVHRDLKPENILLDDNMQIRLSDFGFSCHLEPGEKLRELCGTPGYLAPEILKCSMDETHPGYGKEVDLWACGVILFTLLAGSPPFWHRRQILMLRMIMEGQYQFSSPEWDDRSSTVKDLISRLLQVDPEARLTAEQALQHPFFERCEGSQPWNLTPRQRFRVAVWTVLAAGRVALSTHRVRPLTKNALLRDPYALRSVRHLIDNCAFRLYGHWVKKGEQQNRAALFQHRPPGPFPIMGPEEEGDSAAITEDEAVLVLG
Text: as §1

[3] = molecular target: TGFBR1 (Homo sapiens, UniProt P36897); conditions: compound concentration 100 nM; Entrez TGFBR1; read-out: Percent Control
Text: as §1

[4] = molecular target: PIK4CB (Homo sapiens, UniProt Q9UBF8); conditions: 1000 nM, read-out: Percent Control
Text: as §1

[5] = molecular target: DLK (Homo sapiens, UniProt Q12852); conditions: 1000 nM, read-out: Percent Control
Text: as §1

[6] = molecular target: ABL1-nonphosphorylated (Homo sapiens, UniProt P00519); conditions: read-out: Percent Control
ABL1-nonphosphorylated, sequence (P00519 whole entry): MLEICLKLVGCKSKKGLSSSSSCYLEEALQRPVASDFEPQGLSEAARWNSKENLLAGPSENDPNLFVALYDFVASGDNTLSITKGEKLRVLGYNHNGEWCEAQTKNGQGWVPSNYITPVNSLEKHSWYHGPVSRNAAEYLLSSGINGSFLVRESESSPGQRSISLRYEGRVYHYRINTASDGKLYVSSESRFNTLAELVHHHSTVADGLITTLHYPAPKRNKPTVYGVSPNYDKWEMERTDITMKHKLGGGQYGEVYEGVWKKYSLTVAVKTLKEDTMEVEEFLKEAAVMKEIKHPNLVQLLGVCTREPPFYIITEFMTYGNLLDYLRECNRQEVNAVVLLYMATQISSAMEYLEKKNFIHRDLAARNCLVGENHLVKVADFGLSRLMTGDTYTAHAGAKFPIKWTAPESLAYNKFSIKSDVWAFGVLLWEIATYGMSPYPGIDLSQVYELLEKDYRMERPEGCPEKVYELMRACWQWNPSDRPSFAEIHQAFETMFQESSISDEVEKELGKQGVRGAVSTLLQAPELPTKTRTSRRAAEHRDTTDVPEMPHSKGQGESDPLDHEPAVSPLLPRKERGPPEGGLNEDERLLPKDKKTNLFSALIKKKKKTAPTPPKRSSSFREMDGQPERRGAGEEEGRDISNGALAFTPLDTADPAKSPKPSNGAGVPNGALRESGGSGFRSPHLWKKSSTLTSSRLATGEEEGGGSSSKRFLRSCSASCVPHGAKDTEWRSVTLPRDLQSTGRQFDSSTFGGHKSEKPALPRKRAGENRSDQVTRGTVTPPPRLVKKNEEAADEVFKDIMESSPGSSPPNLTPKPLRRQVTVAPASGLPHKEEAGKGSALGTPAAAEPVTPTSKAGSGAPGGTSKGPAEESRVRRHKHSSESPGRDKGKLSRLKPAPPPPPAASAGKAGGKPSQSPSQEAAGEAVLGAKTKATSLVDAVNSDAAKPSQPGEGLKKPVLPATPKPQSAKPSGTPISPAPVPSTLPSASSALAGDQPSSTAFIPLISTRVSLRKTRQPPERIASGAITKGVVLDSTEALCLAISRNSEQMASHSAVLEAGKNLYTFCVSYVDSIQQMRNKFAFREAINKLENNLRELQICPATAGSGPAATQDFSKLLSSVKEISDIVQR
Text: as §1

[7] = molecular target: CDC2L1 (Homo sapiens, UniProt P21127); conditions: 1000 nM, read-out: Percent Control
Text: as §1

[8] = molecular target: RIPK4 (Homo sapiens, UniProt P57078); conditions: 1000 nM, read-out: Percent Control
Text: as §1

[9] = molecular target: TRKB (Homo sapiens, UniProt Q16620); conditions: 1000 nM, read-out: Percent Control
Text: as §1

[10] = molecular target: NEK10 (Homo sapiens, UniProt Q6ZWH5); conditions: 1000 nM, read-out: Percent Control
Text: as §1

[11] = molecular target: WNK4 (Homo sapiens, UniProt Q96J92); conditions: compound concentration 100 nM; Entrez WNK4; read-out: Percent Control
Text: as §1

[12] = molecular target: FLT1 (Homo sapiens, UniProt P17948); conditions: 1000 nM, read-out: Percent Control
Text: as §1

[13] = molecular target: CSF1R (Homo sapiens, UniProt P07333); conditions: read-out: Percent Control
Text: as §1

[14] = molecular target: DAPK1 (Homo sapiens, UniProt P53355); conditions: 1000 nM, read-out: Percent Control
Text: as §1

[15] = molecular target: AKT1 (Homo sapiens, UniProt P31749); conditions: 1000 nM, read-out: Percent Control
Text: as §1

[16] = molecular target: DYRK2 (Homo sapiens, UniProt Q92630); conditions: read-out: Percent Control
DYRK2, sequence (Q92630 whole entry): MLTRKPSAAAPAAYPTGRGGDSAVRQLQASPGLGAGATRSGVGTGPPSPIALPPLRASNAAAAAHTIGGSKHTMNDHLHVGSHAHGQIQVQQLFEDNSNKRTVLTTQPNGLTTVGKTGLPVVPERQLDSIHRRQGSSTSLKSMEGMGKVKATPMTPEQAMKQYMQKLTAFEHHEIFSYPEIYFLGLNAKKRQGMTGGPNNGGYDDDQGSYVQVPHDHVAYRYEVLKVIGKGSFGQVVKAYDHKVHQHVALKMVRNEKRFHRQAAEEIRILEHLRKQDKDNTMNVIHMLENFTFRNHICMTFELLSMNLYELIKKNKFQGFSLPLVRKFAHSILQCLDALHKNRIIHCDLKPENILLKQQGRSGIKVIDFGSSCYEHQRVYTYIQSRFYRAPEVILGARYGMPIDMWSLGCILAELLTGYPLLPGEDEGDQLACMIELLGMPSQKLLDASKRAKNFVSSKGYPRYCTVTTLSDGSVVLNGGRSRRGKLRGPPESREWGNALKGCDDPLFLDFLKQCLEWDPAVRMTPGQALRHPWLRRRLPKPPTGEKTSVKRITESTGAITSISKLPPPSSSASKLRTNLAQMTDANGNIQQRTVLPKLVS
Text: as §1

[17] = molecular target: NEK2 (Homo sapiens, UniProt P51955); conditions: compound concentration 100 nM; Entrez NEK2; read-out: Percent Control
Text: as §1

[18] = molecular target: MYO3B (Homo sapiens, UniProt Q8WXR4); conditions: 1000 nM, read-out: Percent Control
Text: as §1

[19] = molecular target: AKT3 (Homo sapiens, UniProt Q9Y243); conditions: read-out: Percent Control
AKT3, sequence (Q9Y243 whole entry): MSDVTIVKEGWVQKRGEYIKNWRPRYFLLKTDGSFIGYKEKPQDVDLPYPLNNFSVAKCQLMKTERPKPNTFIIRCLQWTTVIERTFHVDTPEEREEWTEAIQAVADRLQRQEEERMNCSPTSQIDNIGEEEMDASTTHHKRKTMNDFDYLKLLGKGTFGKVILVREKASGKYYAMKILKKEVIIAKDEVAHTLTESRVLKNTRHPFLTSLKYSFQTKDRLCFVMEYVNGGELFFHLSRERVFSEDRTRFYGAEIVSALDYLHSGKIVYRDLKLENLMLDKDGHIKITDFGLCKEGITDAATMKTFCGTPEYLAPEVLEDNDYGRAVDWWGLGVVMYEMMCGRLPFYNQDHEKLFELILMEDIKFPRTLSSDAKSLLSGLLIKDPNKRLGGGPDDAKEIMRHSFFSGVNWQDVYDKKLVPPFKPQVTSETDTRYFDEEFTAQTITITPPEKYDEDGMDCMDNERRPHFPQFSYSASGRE
Text: as §1

[20] = molecular target: MKNK2 (Homo sapiens, UniProt Q9HBH9); conditions: compound concentration 100 nM; Entrez MKNK2; read-out: Percent Control
Text: as §1

[21] = molecular target: DAPK2 (Homo sapiens, UniProt Q9UIK4); conditions: 1000 nM, read-out: Percent Control
Text: as §1

[22] = molecular target: TTK (Homo sapiens, UniProt P33981); conditions: 1000 nM, read-out: Percent Control
Text: as §1

[23] = molecular target: JAK1(JH2domain-pseudokinase) (Homo sapiens, UniProt P23458); conditions: 1000 nM, read-out: Percent Control
Text: as §1

[24] = molecular target: ERBB2 (Homo sapiens, UniProt P04626); conditions: read-out: Percent Control
Text: as §1

[25] = molecular target: TAK1 (Homo sapiens, UniProt O43318); conditions: 1000 nM, read-out: Percent Control
Text: as §1

[26] = molecular target: CAMK1B (Homo sapiens, UniProt Q6P2M8); conditions: 1000 nM, read-out: Percent Control
Text: as §1

[27] = molecular target: BRK (Homo sapiens, UniProt Q13882); conditions: 1000 nM, read-out: Percent Control
Text: as §1

[28] = molecular target: WEE1 (Homo sapiens, UniProt P30291); conditions: 1000 nM, read-out: Percent Control
Text: as §1

[29] = molecular target: PRKD1 (Homo sapiens, UniProt Q15139); conditions: 1000 nM, read-out: Percent Control
Text: as §1

[30] = molecular target: CAMKK2 (Homo sapiens, UniProt Q96RR4); conditions: 1000 nM, read-out: Percent Control
Text: as §1

[31] = molecular target: TRKA (Homo sapiens, UniProt P04629); conditions: 1000 nM, read-out: Percent Control
Text: as §1

[32] = molecular target: FGFR1 (Homo sapiens, UniProt P11362); conditions: read-out: Percent Control
FGFR1, sequence (P11362 22-822): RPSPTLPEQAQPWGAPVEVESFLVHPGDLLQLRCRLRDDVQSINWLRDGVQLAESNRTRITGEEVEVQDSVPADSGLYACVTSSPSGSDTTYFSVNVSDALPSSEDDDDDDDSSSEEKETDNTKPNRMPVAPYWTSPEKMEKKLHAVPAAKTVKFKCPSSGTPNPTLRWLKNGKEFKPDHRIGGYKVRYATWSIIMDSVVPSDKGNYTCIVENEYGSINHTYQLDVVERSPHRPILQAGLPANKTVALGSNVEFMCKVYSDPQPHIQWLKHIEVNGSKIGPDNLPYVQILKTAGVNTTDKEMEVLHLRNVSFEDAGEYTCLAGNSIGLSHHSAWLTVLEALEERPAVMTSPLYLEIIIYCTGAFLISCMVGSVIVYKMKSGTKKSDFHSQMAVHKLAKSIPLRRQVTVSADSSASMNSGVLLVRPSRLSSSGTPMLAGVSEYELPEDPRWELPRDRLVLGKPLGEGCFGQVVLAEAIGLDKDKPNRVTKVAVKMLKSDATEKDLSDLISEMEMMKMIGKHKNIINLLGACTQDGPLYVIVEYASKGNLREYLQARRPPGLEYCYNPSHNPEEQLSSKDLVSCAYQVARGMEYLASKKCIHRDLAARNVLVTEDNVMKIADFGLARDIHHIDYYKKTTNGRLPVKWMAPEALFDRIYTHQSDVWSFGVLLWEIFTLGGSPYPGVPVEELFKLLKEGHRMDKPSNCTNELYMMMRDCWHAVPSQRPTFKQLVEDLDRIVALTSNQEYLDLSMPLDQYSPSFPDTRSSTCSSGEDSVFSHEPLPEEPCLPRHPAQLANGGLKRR
Text: as §1

[33] = molecular target: PIP5K1A (Homo sapiens, UniProt Q99755); conditions: 1000 nM, read-out: Percent Control
Text: as §1

[34] = molecular target: PRKCH (Homo sapiens, UniProt P24723); conditions: compound concentration 100 nM; Entrez PRKCH; read-out: Percent Control
Text: as §1

[35] = molecular target: DMPK (Homo sapiens, UniProt Q09013); conditions: read-out: Percent Control
DMPK, sequence (Q09013 whole entry): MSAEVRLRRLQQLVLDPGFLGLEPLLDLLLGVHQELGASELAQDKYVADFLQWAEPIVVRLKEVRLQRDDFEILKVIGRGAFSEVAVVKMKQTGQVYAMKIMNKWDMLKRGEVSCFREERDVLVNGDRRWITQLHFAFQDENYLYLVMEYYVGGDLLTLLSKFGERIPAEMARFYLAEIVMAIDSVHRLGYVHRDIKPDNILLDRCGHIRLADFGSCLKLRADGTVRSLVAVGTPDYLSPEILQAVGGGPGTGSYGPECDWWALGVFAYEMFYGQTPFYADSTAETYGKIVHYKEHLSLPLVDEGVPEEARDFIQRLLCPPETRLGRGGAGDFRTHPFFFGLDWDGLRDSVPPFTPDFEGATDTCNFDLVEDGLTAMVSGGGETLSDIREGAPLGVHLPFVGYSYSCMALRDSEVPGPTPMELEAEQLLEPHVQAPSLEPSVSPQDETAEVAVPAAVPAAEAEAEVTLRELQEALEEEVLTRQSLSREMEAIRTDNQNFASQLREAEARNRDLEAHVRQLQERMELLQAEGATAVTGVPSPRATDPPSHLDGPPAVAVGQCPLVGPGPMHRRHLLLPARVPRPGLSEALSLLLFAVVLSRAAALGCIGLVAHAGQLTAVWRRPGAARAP
Text: as §1

[36] = molecular target: EPHA2 (Homo sapiens, UniProt P29317); conditions: read-out: Percent Control
EPHA2, sequence (P29317 24-976): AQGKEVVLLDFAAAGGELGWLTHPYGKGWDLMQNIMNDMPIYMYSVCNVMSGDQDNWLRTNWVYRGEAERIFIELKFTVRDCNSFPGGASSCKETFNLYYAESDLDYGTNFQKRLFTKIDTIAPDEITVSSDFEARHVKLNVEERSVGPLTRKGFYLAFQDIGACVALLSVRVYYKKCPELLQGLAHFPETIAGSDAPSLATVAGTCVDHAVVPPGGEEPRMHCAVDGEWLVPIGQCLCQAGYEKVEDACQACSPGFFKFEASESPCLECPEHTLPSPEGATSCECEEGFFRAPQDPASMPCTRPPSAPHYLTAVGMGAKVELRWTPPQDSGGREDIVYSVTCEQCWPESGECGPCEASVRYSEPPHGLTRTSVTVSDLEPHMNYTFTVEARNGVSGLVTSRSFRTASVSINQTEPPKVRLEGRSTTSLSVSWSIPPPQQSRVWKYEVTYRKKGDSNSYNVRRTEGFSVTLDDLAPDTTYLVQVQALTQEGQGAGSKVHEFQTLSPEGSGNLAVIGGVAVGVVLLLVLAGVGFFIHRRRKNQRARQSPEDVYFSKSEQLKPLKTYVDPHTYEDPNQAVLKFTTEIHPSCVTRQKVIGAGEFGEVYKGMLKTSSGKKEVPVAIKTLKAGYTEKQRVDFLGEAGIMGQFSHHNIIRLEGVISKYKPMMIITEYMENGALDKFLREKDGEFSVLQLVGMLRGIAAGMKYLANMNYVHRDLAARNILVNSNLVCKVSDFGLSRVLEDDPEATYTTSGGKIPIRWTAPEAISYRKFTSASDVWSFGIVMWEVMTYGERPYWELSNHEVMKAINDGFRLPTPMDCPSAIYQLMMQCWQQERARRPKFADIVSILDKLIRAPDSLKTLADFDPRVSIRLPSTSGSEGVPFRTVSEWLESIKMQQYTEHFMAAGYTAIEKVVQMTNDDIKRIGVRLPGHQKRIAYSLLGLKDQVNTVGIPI
Text: as §1

[37] = molecular target: MAP4K4 (Homo sapiens, UniProt O95819); conditions: 1000 nM, read-out: Percent Control
Text: as §1

`CN1C(=O)[C@@H](N2CCc3c(nn(Cc4ccccc4)c3C(N)=O)C2=O)COc2cc(Cl)ccc21` [Compound 10, (S)-2-benzyl-6-(8-chloro-5-methyl-4-oxo-2,3,4,5-tetrahydrobenzo[b][1,4]oxazepin-3-yl)-7-oxo-4,5,6,7-tetrahydro-2H-pyrazolo[3,4-c]pyridine-3-carboxamide] was tested, and the remaining binding at 0.1 µM [1] was 80%, the remaining binding at 1 µM [2] was 78% and the remaining binding at 0.1 µM [3] was 100%. For the same molecule, the remaining binding at 1 µM [4] was 75%, the remaining binding at 1 µM [5] was 81% and the remaining binding at 1 µM ([6]; 1000 nM) was 100%. For the same molecule, the remaining binding at 0.1 µM ([6]; compound concentration 100 nM, Entrez ABL1) was 100%, the remaining binding at 1 µM [7] was 83% and the remaining binding at 1 µM [8] was 83%. It also gave a remaining binding at 1 µM [9] of 76%, a remaining binding at 1 µM [10] of 94% and a remaining binding at 0.1 µM [11] of 100%. It also gave a remaining binding at 1 µM [12] of 86%, a remaining binding at 1 µM ([13]; 1000 nM) of 100% and a remaining binding at 0.1 µM ([13]; compound concentration 100 nM, Entrez CSF1R) of 83%. The remaining binding at 1 µM [14] was 96%, the remaining binding at 1 µM [15] was 91% and the remaining binding at 1 µM ([16]; 1000 nM) was 100%. For the same molecule, the remaining binding at 0.1 µM ([16]; compound concentration 100 nM, Entrez DYRK2) was 100%, the remaining binding at 0.1 µM [17] was 82% and the remaining binding at 1 µM [18] was 96%. For the same molecule, the remaining binding at 1 µM ([19]; 1000 nM) was 100%, the remaining binding at 0.1 µM ([19]; compound concentration 100 nM, Entrez AKT3) was 100% and the remaining binding at 0.1 µM [20] was 94%. The remaining binding at 1 µM [21] was 86%, the remaining binding at 1 µM [22] was 93% and the remaining binding at 1 µM [23] was 94%. It also gave a remaining binding at 1 µM ([24]; 1000 nM) of 100%, a remaining binding at 0.1 µM ([24]; compound concentration 100 nM, Entrez ERBB2) of 100% and a remaining binding at 1 µM [25] of 82%. It also gave a remaining binding at 1 µM [26] of 91%, a remaining binding at 1 µM [27] of 87% and a remaining binding at 1 µM [28] of 95%. It also gave a remaining binding at 1 µM [29] of 97%, a remaining binding at 1 µM [30] of 80% and a remaining binding at 1 µM [31] of 95%. It also gave a remaining binding at 1 µM ([32]; 1000 nM) of 100%, a remaining binding at 0.1 µM ([32]; compound concentration 100 nM, Entrez FGFR1) of 88% and a remaining binding at 1 µM [33] of 69%. The remaining binding at 0.1 µM [34] was 92%, the remaining binding at 1 µM ([35]; 1000 nM) was 100% and the remaining binding at 0.1 µM ([35]; compound concentration 100 nM, Entrez DMPK) was 80%. The remaining binding at 1 µM ([36]; 1000 nM) was 100%, the remaining binding at 0.1 µM ([36]; compound concentration 100 nM, Entrez EPHA2) was 100% and the remaining binding at 1 µM [37] was 94%.
